Legend:
[1] = target: cGMP-specific 3',5'-cyclic phosphodiesterase (Homo sapiens, UniProt O76074); assay: The maximum final concentration of the compound was 10 μM. The plate was incubated at 30° C. for 1 h, and 20 μL of 70 μM EDTA was then added to stop the reaction. 26 μL of solution of each well was transferred to a 384-well plate.
[2] = target: Dual 3',5'-cyclic-AMP and -GMP phosphodiesterase 11A (Homo sapiens, UniProt Q9HCR9); assay: Caliper Mobility-Shift Assay: To a 96-well plate, 20 μL of 10 μM FL-cGMP as the substrate was added; then 1 μL solution of the compound in DMSO or DMSO solution without compound was added; and then 29 μL of 0.28 ng/μL PDE-11 enzyme buffer (100 mM Hepes pH 7.5, 5 mM MgCl2, 0.002% Brij-35) was added. The maximum final concentration of the compound was 10 μM. The plate was incubated at 30° C. for 1 h, and 20 μL of 70 μM EDTA was then added to stop the reaction. 26 μL of solution of each well was transferred to a 384-well plate.
Chain of Dual 3',5'-cyclic-AMP and -GMP phosphodiesterase 11A (Q9HCR9 whole entry): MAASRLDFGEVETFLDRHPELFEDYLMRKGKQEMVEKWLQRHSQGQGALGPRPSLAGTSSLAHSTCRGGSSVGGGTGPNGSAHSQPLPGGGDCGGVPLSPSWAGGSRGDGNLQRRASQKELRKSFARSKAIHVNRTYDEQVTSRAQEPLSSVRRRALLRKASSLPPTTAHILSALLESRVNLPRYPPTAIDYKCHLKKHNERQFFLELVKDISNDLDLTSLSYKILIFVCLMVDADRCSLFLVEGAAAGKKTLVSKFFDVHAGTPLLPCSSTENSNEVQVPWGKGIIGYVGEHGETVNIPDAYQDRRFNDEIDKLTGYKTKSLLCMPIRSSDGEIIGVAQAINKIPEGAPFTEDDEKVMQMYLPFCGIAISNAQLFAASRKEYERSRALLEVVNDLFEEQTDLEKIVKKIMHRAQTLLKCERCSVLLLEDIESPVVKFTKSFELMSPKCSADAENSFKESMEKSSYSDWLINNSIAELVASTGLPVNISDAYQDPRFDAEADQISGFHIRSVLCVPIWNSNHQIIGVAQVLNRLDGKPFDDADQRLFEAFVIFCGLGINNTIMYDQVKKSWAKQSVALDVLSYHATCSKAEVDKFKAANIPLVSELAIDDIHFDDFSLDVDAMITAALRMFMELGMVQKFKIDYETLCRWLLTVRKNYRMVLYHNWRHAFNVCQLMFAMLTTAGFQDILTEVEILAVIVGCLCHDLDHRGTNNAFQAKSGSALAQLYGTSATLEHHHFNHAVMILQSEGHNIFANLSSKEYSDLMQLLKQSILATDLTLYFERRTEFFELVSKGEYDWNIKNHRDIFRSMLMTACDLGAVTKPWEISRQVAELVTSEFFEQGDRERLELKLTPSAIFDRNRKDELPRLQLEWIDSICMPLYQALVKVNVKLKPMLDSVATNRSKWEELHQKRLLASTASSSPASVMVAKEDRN

COc1ccc(CNc2nc(N3CC4CC4C3)ncc2C(=O)NCc2ccccn2)cc1Cl (configuration not stated)
IC50 [1]: 2.12 nM | IC50 [2]: > 10000 nM
